Experimental data reported in ChEMBL document CHEMBL3232987, “Investigation of Ugi-4CC derived 1H-tetrazol-5-yl-(aryl) methyl piperazinyl-6-fluoro-4-oxo-1,4-dihydroquinoline-3-carboxylic acid: synthesis, biology and 3D-QSAR analysis” (Eur J Med Chem, 2014).
Converted amounts (≈) assume the structure as drawn.

Key:
Staphylococcus aureus [1] = assay: Antibacterial activity against Staphylococcus aureus ATCC 25923 by NCCLS two-fold dilution method; format: functional
Staphylococcus aureus [2] = assay: Antibacterial activity against gentamicin-resistant Staphylococcus aureus ATCC 33592 by NCCLS two-fold dilution method; format: functional
Staphylococcus aureus [3] = assay: Antibacterial activity against Staphylococcus aureus ATCC 25923 after 24 hrs by spectrophotometric analysis; format: functional, organism-based; settings: for IC50: read-out: IC50
Staphylococcus aureus [4] = assay: Antibacterial activity against gentamicin-resistant Staphylococcus aureus ATCC 33592 after 24 hrs by spectrophotometric analysis; format: functional, organism-based; settings: for IC50: read-out: IC50
Klebsiella pneumoniae [5] = assay: Antibacterial activity against Klebsiella pneumoniae after 24 hrs by spectrophotometric analysis; format: functional, organism-based; settings: for IC50: read-out: IC50
Staphylococcus aureus [6] = assay: Antibacterial activity against Staphylococcus aureus ATCC 29213 by NCCLS two-fold dilution method; format: functional
Klebsiella pneumoniae [7] = assay: Antibacterial activity against Klebsiella pneumoniae by NCCLS two-fold dilution method; format: functional
Staphylococcus aureus [8] = assay: Antibacterial activity against Staphylococcus aureus ATCC 29213 after 24 hrs by spectrophotometric analysis; format: functional, organism-based; settings: for IC50: read-out: IC50
Escherichia coli [9] = assay: Antibacterial activity against Escherichia coli after 24 hrs by spectrophotometric analysis; format: functional, organism-based; settings: for IC50: read-out: IC50
Escherichia coli [10] = assay: Antibacterial activity against Escherichia coli by NCCLS two-fold dilution method; format: functional
Staphylococcus aureus [11] = assay: Antibacterial activity against methicillin-resistant Staphylococcus aureus ATCC 700699 after 24 hrs by spectrophotometric analysis; format: functional, organism-based; settings: for IC50: read-out: IC50
L929 [12] = assay: Cytotoxicity against mouse L929 cells assessed as cell viability up to MIC 0.39 ug/ml after 24 hrs by MTT assay; format: cell-based; settings: l929, 24 h
Staphylococcus aureus [13] = assay: Antibacterial activity against methicillin-resistant Staphylococcus aureus ATCC 700699 by NCCLS two-fold dilution method; format: functional
L929 [14] = assay: Cytotoxicity against mouse L929 cells assessed as cell morphological changes at 12.5 to 50 ug/ml after 24 hrs by giemsa staining based phase contrast microscopy; settings: l929, 24 h
[15] = Staphylococcus aureus, ATCC 25923
[16] = Staphylococcus aureus, ATCC 25923, 24 h
[17] = Staphylococcus aureus, ATCC 33592, 24 h
[18] = Staphylococcus aureus, ATCC 29213, 24 h
[19] = Staphylococcus aureus, ATCC 700699, 24 h

Compound | -logMIC (Staphylococcus aureus [1]) | MIC (Staphylococcus aureus [1]; [15]) | MIC (Staphylococcus aureus [2]) | MIC (Staphylococcus aureus [3]; [16]) | IC50 (Staphylococcus aureus [3]; [16]) | MIC (Staphylococcus aureus [4]; [17]) | IC50 (Staphylococcus aureus [4]; [17]) | MIC (Klebsiella pneumoniae [5]; Klebsiella pneumoniae, 24 h) | IC50 (Klebsiella pneumoniae [5]; Klebsiella pneumoniae, 24 h) | MIC (Staphylococcus aureus [6]) | MIC (Klebsiella pneumoniae [7]) | MIC (Staphylococcus aureus [8]; [18]) | IC50 (Staphylococcus aureus [8]; [18]) | MIC (Escherichia coli [9]; Escherichia coli, 24 h) | IC50 (Escherichia coli [9]; Escherichia coli, 24 h) | MIC (Escherichia coli [10]) | MIC (Staphylococcus aureus [11]; [19]) | IC50 (Staphylococcus aureus [11]; [19]) | Activity (L929 [12]) | MIC (Staphylococcus aureus [13]) | further results
CCn1cc(C(=O)O)c(=O)c2cc(F)c(N3CCN(C(c4ccc(OC)c(OC)c4OC)c4nnnn4C(C)(C)C)CC3)cc21 (stereo not drawn) | 5.602 | 1.56 µg/mL (≈ 2.5 µM) | 3.12 µg/mL (≈ 5 µM) | 0.81 µg/mL (≈ 1.3 µM) | 0.4 µg/mL (≈ 0.641 µM) | 0.87 µg/mL (≈ 1.39 µM) | 0.75 µg/mL (≈ 1.2 µM) | > 50 µg/mL | > 50 µg/mL | 3.12 µg/mL (≈ 5 µM) | > 50 µg/mL | 1.4 µg/mL (≈ 2.24 µM) | 0.8 µg/mL (≈ 1.28 µM) | 46 µg/mL (≈ 73.8 µM) | 29 µg/mL (≈ 46.5 µM) | 50 µg/mL (≈ 80.2 µM) | 50 µg/mL (≈ 80.2 µM) | 50 µg/mL (≈ 80.2 µM) | Non-toxic | 50 µg/mL (≈ 80.2 µM) | 
O=C(O)c1cn(Cc2ccc(C(F)(F)F)cc2)c2cc(N3CCN(C(c4ccco4)c4nnnn4C4CCCCC4)CC3)c(F)cc2c1=O (stereo not drawn) | 5.939 | 0.78 µg/mL (≈ 1.15 µM) | 0.78 µg/mL (≈ 1.15 µM) | 0.52 µg/mL (≈ 0.765 µM) | 0.2 µg/mL (≈ 0.294 µM) | 0.78 µg/mL (≈ 1.15 µM) | 0.4 µg/mL (≈ 0.589 µM) | 3.4 µg/mL (≈ 5 µM) | 1.7 µg/mL (≈ 2.5 µM) | 1.56 µg/mL (≈ 2.3 µM) | 6.25 µg/mL (≈ 9.2 µM) | 0.82 µg/mL (≈ 1.21 µM) | 0.75 µg/mL (≈ 1.1 µM) | 4.2 µg/mL (≈ 6.18 µM) | 2.9 µg/mL (≈ 4.27 µM) | 6.25 µg/mL (≈ 9.2 µM) | 50 µg/mL (≈ 73.6 µM) | > 50 µg/mL | Non-toxic | 50 µg/mL (≈ 73.6 µM) | 
CCn1cc(C(=O)O)c(=O)c2cc(F)c(N3CCN(C(c4ccncc4)c4nnnn4C4CCCCC4)CC3)cc21 (stereo not drawn) | 5.555 | 1.56 µg/mL (≈ 2.78 µM) | 3.12 µg/mL (≈ 5.57 µM) | 1.09 µg/mL (≈ 1.94 µM) | 0.37 µg/mL (≈ 0.66 µM) | 0.6 µg/mL (≈ 1.07 µM) | 0.1 µg/mL (≈ 0.178 µM) | 6.3 µg/mL (≈ 11.2 µM) | 3.5 µg/mL (≈ 6.24 µM) | 3.12 µg/mL (≈ 5.57 µM) | 6.25 µg/mL (≈ 11.1 µM) | 1 µg/mL (≈ 1.78 µM) | 0.6 µg/mL (≈ 1.07 µM) | 4.2 µg/mL (≈ 7.49 µM) | 2.1 µg/mL (≈ 3.75 µM) | 6.25 µg/mL (≈ 11.1 µM) | > 50 µg/mL | 50 µg/mL (≈ 89.2 µM) | Non-toxic | 50 µg/mL (≈ 89.2 µM) | 
GENTAMICIN |  |  | > 50 µg/mL |  |  |  |  |  |  | > 50 µg/mL | 1.56 µg/mL |  |  |  |  | 1.56 µg/mL |  |  |  | > 50 µg/mL | MIC (Staphylococcus aureus [1]): 1.56 µg/mL; MIC (Staphylococcus aureus [3]): 2.1 µg/mL; MIC (Staphylococcus aureus [4]): > 50 µg/mL; MIC (Klebsiella pneumoniae [5]): 2.1 µg/mL; MIC (Staphylococcus aureus [8]): > 50 µg/mL; MIC (Escherichia coli [9]): 2.1 µg/mL; MIC (Staphylococcus aureus [11]): > 50 µg/mL
CCn1cc(C(=O)O)c(=O)c2cc(F)c(N3CCN(C(c4ccncc4)c4nnnn4C(C)(C)C)CC3)cc21 (stereo not drawn) | 5.534 | 1.56 µg/mL (≈ 2.92 µM) | 1.56 µg/mL (≈ 2.92 µM) | 0.9 µg/mL (≈ 1.68 µM) | 0.5 µg/mL (≈ 0.935 µM) | 0.7 µg/mL (≈ 1.31 µM) | 0.35 µg/mL (≈ 0.655 µM) | 26 µg/mL (≈ 48.6 µM) | 24 µg/mL (≈ 44.9 µM) | 1.56 µg/mL (≈ 2.92 µM) | 25 µg/mL (≈ 46.8 µM) | 0.9 µg/mL (≈ 1.68 µM) | 0.6 µg/mL (≈ 1.12 µM) | 27.7 µg/mL (≈ 51.8 µM) | 20.5 µg/mL (≈ 38.3 µM) | 25 µg/mL (≈ 46.8 µM) | 50 µg/mL (≈ 93.5 µM) | 50 µg/mL (≈ 93.5 µM) | Non-toxic | 50 µg/mL (≈ 93.5 µM) | 
O=C(O)c1cn(C2CC2)c2cc(N3CCNCC3)c(F)cc2c1=O [CIPROFLOXACIN] |  | 0.78 µg/mL (≈ 2.35 µM) | 0.19 µg/mL (≈ 0.573 µM) | 0.9 µg/mL (≈ 2.72 µM) | 0.3 µg/mL (≈ 0.905 µM) | 0.4 µg/mL (≈ 1.21 µM) | 0.2 µg/mL (≈ 0.604 µM) | 0.049 µg/mL (≈ 0.148 µM) | 0.02 µg/mL (≈ 0.0604 µM) |  | 0.012 µg/mL (≈ 0.0362 µM) | 20.2 µg/mL (≈ 61 µM) | 16.7 µg/mL (≈ 50.4 µM) |  |  |  | 20.2 µg/mL (≈ 61 µM) | 16.7 µg/mL (≈ 50.4 µM) |  |  | 
CCn1cc(C(=O)O)c(=O)c2cc(F)c(N3CCN(C(c4ccc(OC)c(OC)c4OC)c4nnnn4C4CCCCC4)CC3)cc21 (stereo not drawn) | 5.318 | 1.56 µg/mL (≈ 2.4 µM) | 1.56 µg/mL (≈ 2.4 µM) | 1.35 µg/mL (≈ 2.08 µM) | 0.37 µg/mL (≈ 0.569 µM) | 0.8 µg/mL (≈ 1.23 µM) | 0.7 µg/mL (≈ 1.08 µM) |  |  | 1.56 µg/mL (≈ 2.4 µM) |  | 0.8 µg/mL (≈ 1.23 µM) | 0.7 µg/mL (≈ 1.08 µM) |  |  |  | 28.9 µg/mL (≈ 44.5 µM) | 14.6 µg/mL (≈ 22.5 µM) | Non-toxic | 25 µg/mL (≈ 38.5 µM) | Activity (L929 [14]): Non-toxic
CCn1cc(C(=O)O)c(=O)c2cc(F)c(N3CCN(C(c4ccccc4)c4nnnn4C4CCCCC4)CC3)cc21 (stereo not drawn) | 5.554 | 1.56 µg/mL (≈ 2.79 µM) | 1.56 µg/mL (≈ 2.79 µM) | 0.8 µg/mL (≈ 1.43 µM) | 0.4 µg/mL (≈ 0.715 µM) | 0.78 µg/mL (≈ 1.39 µM) | 0.75 µg/mL (≈ 1.34 µM) |  |  | 3.12 µg/mL (≈ 5.57 µM) |  | 1.5 µg/mL (≈ 2.68 µM) | 0.8 µg/mL (≈ 1.43 µM) |  |  |  | 11.6 µg/mL (≈ 20.7 µM) | 4.9 µg/mL (≈ 8.76 µM) | Non-toxic | 12.5 µg/mL (≈ 22.3 µM) | 
CCn1cc(C(=O)O)c(=O)c2cc(F)c(N3CCN(C(c4ccc(F)cc4)c4nnnn4C(C)(C)C)CC3)cc21 (stereo not drawn) | 5.548 | 0.78 µg/mL (≈ 1.41 µM) | 0.78 µg/mL (≈ 1.41 µM) | 0.9 µg/mL (≈ 1.63 µM) | 0.3 µg/mL (≈ 0.544 µM) | 0.5 µg/mL (≈ 0.906 µM) | 0.2 µg/mL (≈ 0.363 µM) |  |  | 0.78 µg/mL (≈ 1.41 µM) |  | 0.7 µg/mL (≈ 1.27 µM) | 0.2 µg/mL (≈ 0.363 µM) |  |  |  | 12.5 µg/mL (≈ 22.7 µM) | 10 µg/mL (≈ 18.1 µM) | Non-toxic | 12.5 µg/mL (≈ 22.7 µM) | 
